Earlier results, collected in patent US8716482B2, “Substituted aminopiperidines as dipeptidyl peptidase-IV inhibitors for the treatment of diabetes” (Merck Sharp & Dohme Corp., priority 2009, dated 2014).

Legend:
hematopoiesis = details: mouse, cyclophosphamide-induced neutropenia
DPP-4 = DPP-4 (Homo sapiens (Human), UniProt P27487)
Sequence of DPP-4 (P27487 39-766, species assumed): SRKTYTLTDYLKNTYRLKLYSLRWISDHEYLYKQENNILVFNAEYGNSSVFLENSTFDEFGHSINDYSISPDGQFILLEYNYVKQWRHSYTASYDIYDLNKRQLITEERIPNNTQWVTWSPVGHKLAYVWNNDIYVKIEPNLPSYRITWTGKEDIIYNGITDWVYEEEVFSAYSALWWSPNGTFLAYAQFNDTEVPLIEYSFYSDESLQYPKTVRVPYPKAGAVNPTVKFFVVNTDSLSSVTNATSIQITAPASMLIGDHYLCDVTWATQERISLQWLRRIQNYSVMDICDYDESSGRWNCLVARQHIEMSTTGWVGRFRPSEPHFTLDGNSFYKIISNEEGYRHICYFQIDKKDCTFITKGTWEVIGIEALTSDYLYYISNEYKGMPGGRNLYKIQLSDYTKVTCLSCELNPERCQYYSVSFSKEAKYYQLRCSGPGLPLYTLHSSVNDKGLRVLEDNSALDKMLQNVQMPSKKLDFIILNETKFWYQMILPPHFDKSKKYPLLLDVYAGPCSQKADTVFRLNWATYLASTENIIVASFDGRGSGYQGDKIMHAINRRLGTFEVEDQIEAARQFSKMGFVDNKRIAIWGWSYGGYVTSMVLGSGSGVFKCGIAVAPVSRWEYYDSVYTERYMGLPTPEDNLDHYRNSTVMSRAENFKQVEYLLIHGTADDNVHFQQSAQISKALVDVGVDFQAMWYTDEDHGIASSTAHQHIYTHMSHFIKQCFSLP

Row | degradation of GRF in plasma to GRF[3-44] (DPP-4) | Molecule | hematopoiesis (hematopoiesis)
1 |  | CC(C)[C@H](N)C(=O)N1CCC[C@H]1B(O)O [Val-Boro-Pro] | stimulated hematopoiesis
2 | prevented | diprotin A | 
